Measurements as given in patent publication US20070270392A1, “Use of a Cyclopentenone Prostaglandin for Delaying the Onset and/or Preventing the Continuation of Labour” (Imperial College Innovations Limited, priority 2003, published 2007).

Legend:
COX-2 = assay: Western immunoblot of IL-1β-induced COX-2 protein expression in myometrial cells; type: cell-based, human; details: treated 2 h, IL-1β 6 h
Description: (§1) Myometrial tissue was collected at term from the upper margin of uterine incision at the time of lower segment caesarean section either prior to the onset of labour (L−) or […] (L+). L+ samples were collected by Dr Mark Johnson and Dr S Soorrana at Chelsea & Westminster Hospital. Myometrial tissue was dissected, rinsed in PBS, and digested in serum-free DMEM containing 15 mg/ml collagenase 1A (Sigma), 15 mg/ml collagenase X, and 50 mg/ml bovine serum albumin for 45 min at 37° C. The cell suspension was filtered through a cell strainer, centrifuged at 400 g for 5 min, and the pellet re-suspended and plated out in DMEM, 10% FCS (Helena BioScience), 1% L-glutamine, 1% penicillin-streptomycin. Cells were used between passage numbers 1-4.
Protein samples (20-70 μg) were mixed with Laemmli sample buffer (1:1) containing β-mercaptoethanol (5%), and boiled for 5 min. Proteins were then separated by SDS-PAGE (12-14% gels) and transferred onto PVDF membrane (Amersham Pharmacia Biotech). […] The blots were then incubated with HRP-conjugated secondary antibody (diluted 1:2000 in 1% non-fat milk in PBS-T buffer) for 1 h and washed three times (10 min each) in PBS-T. Signal detection was achieved using enhanced chemi-luminescence (ECL plus system, Amersham Pharmacia Biotech) according to manufacturer's instructions. […]

NF-κB = assay: NF-κB-dependent luciferase reporter (κB.BG.Luc) in myometrial cells; type: cell-based, human; details: for IL-1-induced NF-κB transcriptional activity: treated 2 h, IL-1β 1 ng/ml 6 h
Description: Myometrial cells were transiently transfected with the NFκB-dependent reporter construct κB.BG.Luc, treated with 15dPGJ2 or vehicle for 2 h, +/−IL-1β(1 ng/ml) for 6 h. […] Values are normalised for b-gal reporter activity. (NS=nonstimulated).
Myometrial cells were transfected with […] κB.BG.Luc reporter and 200 ng PPAR-γ expression vector and treated with 15d-PGJ2 for 2 h followed by IL-1β (1 ng/ml) for 6 h. Values are normalised for β-galactosidase reporter activity. (NS=nonstimulated).
as §1
pGL3.6 κB.BG.luc: a NF-κB-dependent reporter construct with 6 copies of the NF-κB binding site.
Cells were co-transfected with the renilla vector pRL-CMV or a β-galactosidase vector pCH110 as internal controls for transfection efficiencies.

[1] = test system: LPS-induced inflammatory responses in placental homogenates; assay: Mouse model of preterm labour: placental inflammatory responses after intrauterine LPS ± 15d-PGJ2; type: in vivo, mice
Description: Concentrations of IL-1 (in placental homogenates collected from gestation day 16 mice 6 hours after intrauterine injection of 250 μg LPS+vehicle or 250 μg LPS+4 μg 15d-PGJ2. * denotes statistically significant difference (t-test (p<0.05)).
Relative concentrations of phospho-p65 in placental homogenates collected from gestation day 16 mice 6 hours after intrauterine injection of 250 μg LPS+vehicle or 250 μg LPS+4 μg 15d-PGJ2. * denotes statistically significant difference (t-test (p<0.05)).
Surgery was performed on timed pregnant MF1 mice at day 16 of gestation. After deep maternal anaesthesia was attained, a minilaparotomy was performed in the lower abdomen. The uterine horns were exposed through the incision and preterm labour was induced by the intrauterine injection of […] lipopolysaccharide (LPS, Sigma) into the gravid horn. This was immediately followed by injection of 4 μg […] (Cayman), or an equal volume of vehicle (methyl acetate), at the same site. The uterus was then returned to the abdomen and the fascia and skin were closed with continuous vicryl sutures.
Mice were sacrificed 6 hours after injection of LPS±15d-PGJ2. Placentae were washed in phosphate buffered saline (PBS), flash frozen in liquid nitrogen and stored at −80° C. until further processing. Fetuses were washed in PBS, then immediately fixed in 4% paraformaldehyde for 24 h and then stored in 70% ethanol until further processing. Placentae were homogenized for 1 minute in the presence of lysis buffer comprising 400 mM KCl, 20 mM HEPES pH7.4, 1 mM dithiothreitol, 20% glycerol and 5% (v/v) protease inhibitor cocktail.
Homogenate levels of Interleukin-1β (IL-1β) and tumour necrosis factor α (TNFα) were determined in placental lysates by ELISA (R and D systems) according to manufacturers instructions. Total protein concentrations were determined for each homogenate and IL-1β and TNFα levels were expressed as pg/mg total protein. […] Phosphorylated p65 (phospho-p65) was detected by western immunoblotting using a specific antibody (Santa Cruz) and quantified by densitometric analysis.

[2] = proximal placentae, gestation day 16 mice, 6 hours after intrauterine 250 μg LPS+4 μg 15d-PGJ2, p<0.05

SMILES	IL-1β-induced COX-2 expression (COX-2)	Effect of PPARγ overexpression on 15d-PGJ2 inhibition of NF-κB transcriptional activity (NF-κB; 200 ng PPAR-γ expression vector)	IL-1-induced NF-κB transcriptional activity (NF-κB)	TNFα levels according to drug treatment ([1]; placentae, 6 hours after intrauterine LPS+15d-PGJ2 vs LPS+ vehicle)	Levels of IL-1β lower than LPS+ vehicle [1, 2]	phospho-p65 levels lower than LPS+ vehicle [1, 2]
CCCCCC=CC=C1C(=O)C=C[C@@H]1CC=CCCCC(=O)O [15d-PGJ2, 15-deoxy-Δ^12,14prostaglandin J2]	inhibited	did not promote	inhibited	not significantly altered	approximately 40%	approximately 35%
CCCCC[C@H](O)/C=C/[C@H]1C=CC(=O)[C@@H]1CCCCCCC(=O)O [PGA1, prostaglandin A1]			reduced to basal levels			
